21 molecules from patent publication US20240217990A1 (Gilead Sciences, Inc., priority 2021, published 2024) can be followed below.

Broadly, the EC50 is the concentration needed to bring the measured effect to its halfway point.

One assay deals with T1, TLR8 (Homo sapiens, UniProt Q9NR97).
T1 construct: Human peripheral blood mononuclear cells (PBMCs) consist of lymphocytes, monocytes and dendritic cells that express TLR7, TLR8 and TLR9; endogenous in cells; host or cells: cryopreserved human PBMCs from healthy donors
T1 sequence (Q9NR97 27-1041): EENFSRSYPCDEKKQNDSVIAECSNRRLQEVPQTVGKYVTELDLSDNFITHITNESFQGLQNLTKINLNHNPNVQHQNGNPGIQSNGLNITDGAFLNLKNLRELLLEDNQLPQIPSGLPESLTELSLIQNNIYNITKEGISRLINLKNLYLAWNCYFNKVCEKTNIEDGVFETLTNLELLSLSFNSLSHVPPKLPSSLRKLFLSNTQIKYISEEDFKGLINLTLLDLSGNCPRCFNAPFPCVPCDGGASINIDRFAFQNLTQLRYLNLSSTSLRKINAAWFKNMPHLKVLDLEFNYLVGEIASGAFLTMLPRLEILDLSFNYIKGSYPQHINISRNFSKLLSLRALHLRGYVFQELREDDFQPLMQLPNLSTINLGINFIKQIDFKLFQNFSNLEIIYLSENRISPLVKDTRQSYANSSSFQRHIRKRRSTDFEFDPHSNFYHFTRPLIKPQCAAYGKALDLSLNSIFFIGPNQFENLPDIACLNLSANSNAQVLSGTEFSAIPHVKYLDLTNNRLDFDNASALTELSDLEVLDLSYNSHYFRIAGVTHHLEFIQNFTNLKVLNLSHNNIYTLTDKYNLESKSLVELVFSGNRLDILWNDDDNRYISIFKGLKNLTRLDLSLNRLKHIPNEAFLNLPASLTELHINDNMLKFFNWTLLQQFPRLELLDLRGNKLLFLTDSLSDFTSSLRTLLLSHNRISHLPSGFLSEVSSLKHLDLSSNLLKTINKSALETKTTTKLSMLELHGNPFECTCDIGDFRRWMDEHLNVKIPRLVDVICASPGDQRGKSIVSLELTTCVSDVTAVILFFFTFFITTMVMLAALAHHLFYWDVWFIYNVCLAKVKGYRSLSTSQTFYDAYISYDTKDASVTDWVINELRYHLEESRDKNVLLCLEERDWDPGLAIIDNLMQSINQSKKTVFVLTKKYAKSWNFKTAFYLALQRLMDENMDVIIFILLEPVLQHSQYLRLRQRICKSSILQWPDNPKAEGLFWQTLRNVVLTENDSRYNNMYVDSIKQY
In words: TLR8 human PBMC cell-based assay (antagonist, Compound A stimulated cytokine release). The following applies: human PBMCs; TLR8 agonist Compound A 800 nM, 6 hours; cytokines (TNFa and IL 12p40) in supernatant; read-out: TLR-8 EC50. The source says:
(§1) Human peripheral blood mononuclear cells (PBMCs) consist of lymphocytes, monocytes and dendritic cells that express TLR7, TLR8 and TLR9. These cells respond to TLR7, TLR8 and TLR9 ligand stimulation and produce cytokines and chemokines in vitro and in vivo. Human PBMCs are therefore suitable to be used in a cell-based assay to assess the in vitro potency of a TLR 7, 8, and/or 9 antagonist. The result is expected to be more translatable to the pharmacodynamics response in vivo than cell line-based assays.
Cryopreserved human PBMCs from healthy donors were thawed and resuspended in RPMI-1640 media with L-glutamine (Corning) supplemented with 10% Fetal Bovine Serum (Hyclone) and 1X Penicillin-Streptomycin (Corning). After counting, the cell density was adjusted to 2 million cells/ml and incubated for 1 hour at 37° C., 5% CO2 for recovery. Following the recovery, the cells were plated by adding 50 μl per well (100,000 cells) to 384-well cell culture plates (Greiner) containing 250 nl of test antagonists in 100% DMSO per well, in a 10 points dose response in quadruplicates. PBMCs were incubated in the presence of antagonists for one hour at 37° C., 5% CO2 before being stimulated with TLR8 agonist. Compound A (Gilead Sciences, U.S. Pat. No. 10,285,990) was used as the TLR8 agonist at a final concentration of 800 nM. PBMCs were incubated in the presence of antagonist and the TLR8 agonist for an additional 6 hours at 37° C., 5% CO2. At the end of the incubation, the cell culture plates were centrifuged at 500 g for 5 min, and the cell culture supernatant was collected. The level of cytokines (TNFa and IL 12p40) in the supernatant was measured by electrochemiluminescence immunoassays (Mesoscale Discovery) following manufacturer's recommended protocols. The level of cytokine measured was plotted against the antagonist concentration and fitted to a sigmoidal function to determine the EC50, which are shown below in Table 11.

The target of the next assay is T2, TLR7 (Homo sapiens, UniProt Q9NYK1).
T2 construct: Human peripheral blood mononuclear cells (PBMCs) consist of lymphocytes, monocytes and dendritic cells that express TLR7, TLR8 and TLR9; endogenous in cells; host or cells: cryopreserved human PBMCs from healthy donors
T2 sequence (Q9NYK1 27-1049): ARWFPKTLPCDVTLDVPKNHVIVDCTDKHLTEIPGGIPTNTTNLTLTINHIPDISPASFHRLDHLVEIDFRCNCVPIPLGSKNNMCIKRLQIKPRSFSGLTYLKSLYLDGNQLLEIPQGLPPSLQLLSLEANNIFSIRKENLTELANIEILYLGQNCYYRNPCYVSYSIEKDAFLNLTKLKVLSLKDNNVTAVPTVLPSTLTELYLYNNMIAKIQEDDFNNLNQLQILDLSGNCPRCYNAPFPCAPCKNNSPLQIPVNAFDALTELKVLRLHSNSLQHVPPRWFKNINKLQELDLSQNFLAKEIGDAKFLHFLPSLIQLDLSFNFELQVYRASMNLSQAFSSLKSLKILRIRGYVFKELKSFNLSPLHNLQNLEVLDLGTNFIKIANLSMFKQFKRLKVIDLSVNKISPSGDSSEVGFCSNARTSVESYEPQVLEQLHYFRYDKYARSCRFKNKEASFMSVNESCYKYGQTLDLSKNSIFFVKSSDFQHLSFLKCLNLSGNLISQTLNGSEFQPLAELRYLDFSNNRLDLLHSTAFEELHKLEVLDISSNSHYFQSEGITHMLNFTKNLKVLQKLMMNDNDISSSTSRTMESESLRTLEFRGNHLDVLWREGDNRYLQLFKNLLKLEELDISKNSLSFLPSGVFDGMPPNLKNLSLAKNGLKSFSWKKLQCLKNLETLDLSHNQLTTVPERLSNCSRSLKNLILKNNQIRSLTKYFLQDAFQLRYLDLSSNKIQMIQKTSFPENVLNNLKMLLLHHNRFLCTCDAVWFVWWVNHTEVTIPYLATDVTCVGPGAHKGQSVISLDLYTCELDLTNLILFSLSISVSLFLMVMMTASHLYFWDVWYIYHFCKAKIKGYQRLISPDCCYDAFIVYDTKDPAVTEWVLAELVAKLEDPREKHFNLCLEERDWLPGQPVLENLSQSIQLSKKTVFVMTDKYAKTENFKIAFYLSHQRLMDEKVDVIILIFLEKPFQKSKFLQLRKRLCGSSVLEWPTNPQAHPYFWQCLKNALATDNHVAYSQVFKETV
In words: TLR7 human PBMC cell-based assay (antagonist, GS-986 stimulated cytokine release). The following applies: human PBMCs; TLR7 agonist GS-986 400 nM, 6 hours; cytokines (IL-6 and IFNα) in supernatant; read-out: TLR-7 EC50.
Excerpt: as §1
Cryopreserved human PBMCs from healthy donors were thawed and resuspended in RPMI-1640 media with L-glutamine (Corning) supplemented with 10% Fetal Bovine Serum (Hyclone) and 1× Penicillin-Streptomycin (Corning). After counting, the cell density was adjusted to 2 million cells/ml and incubated for 1 hour at 37° C., 5% CO2 for recovery. Following the recovery, the cells were plated by adding 50 μl per well (100,000 cells) to 384-well cell culture plates (Greiner) containing 250 nl of test antagonists in 100% DMSO per well, in a 10 points dose response in quadruplicates. PBMCs were incubated in the presence of test antagonists for one hour at 37° C., 5% CO2 before being stimulated with a TLR7 or TLR9agonist. GS-986 (Gilead Sciences) was used as the TLR7 agonist at a final concentration of 400 nM. ODN-2216 (InvivoGen) was used as the TLR9 agonist at a final concentration of 3 μM. PBMCs were incubated in the presence of the test antagonist and the TLR7 (or TLR9) agonist for an additional 6 hours at 37° C., 5% CO2. At the end of the incubation, the cell culture plates were centrifuged at 500 g for 5 min, and the cell culture supernatant was collected. The level of cytokines (IL-6 and IFNα) in the supernatant was measured by electrochemiluminescence immunoassays (Mesoscale Discovery) following manufacturer's recommended protocols. The level of cytokine measured was plotted against the test antagonist concentration and fitted to a sigmoidal function to determine the EC50, which are shown below in Table 11.

Consider `Cc1cc(-c2[nH]c3cc(C4CCC5(C4)CN(CC(N)=O)C5)sc3c2C(C)C)cn2ncnc12` (racemic) [Example 295, 2-(6-(6-Isopropyl-5-(8-methyl-[1,2,4]triazolo[1,5-a]pyridin-6-yl)-4H-thieno[3,2-b]pyrrol-2-yl)-2-azaspiro[3.4]octan-2-yl)acetamide], for which the EC50 on TLR8 is 0.00119 µM; on TLR7 it was 0.00014 µM. For `Cc1cc(-c2[nH]c3cc(C4CCC5(C4)CN(CC(N)=O)C5)sc3c2C(C)C)cn2ncnc12` (single isomer, unassigned) [Example 310, 2-(6-(6-Isopropyl-5-(8-methyl-[1,2,4]triazolo[1,5-a]pyridin-6-yl)-4H-thieno[3,2-b]pyrrol-2-yl)-2-azaspiro[3.4]octan-2-yl)acetamide] the same measures were 0.00136 µM and 0.00018 µM. On the same counts, the results for `Cc1cc(-c2[nH]c3cc(C4CCC5(C4)CN(CC(N)=O)C5)sc3c2C(C)C)cn2ncnc12` (single isomer, unassigned) [Example 311, 2-(6-(6-Isopropyl-5-(8-methyl-[1,2,4]triazolo[1,5-a]pyridin-6-yl)-4H-thieno[3,2-b]pyrrol-2-yl)-2-azaspiro[3.4]octan-2-yl)acetamide] are 0.00182 µM and 0.00057 µM. On the same counts, the results for `Cc1cc(-c2[nH]c3cc(C(=O)N4CCNCC4)sc3c2C(C)C)cc(C)n1` [Example 1, [5-(2,6-dimethyl-4-pyridyl)-6-isopropyl-4H-thieno[3,2-b]pyrrol-2-yl]-piperazin-1-yl-methanone] are 0.0198 µM and 0.0248 µM.

In the case of `Cc1cc(-c2[nH]c3cc(C(=O)N4CCC(N)CC4)sc3c2C(C)C)cc(C)n1` [Example 2], the EC50 came out at 0.0317 µM on TLR8 and 0.0375 µM on TLR7.

Turning to `Cc1cc(-c2[nH]c3cc(C(=O)NC4CCNCC4)sc3c2C(C)C)cc(C)n1` [Example 4], the results for the EC50 on TLR8 and on TLR7 were 0.588 µM and 0.592 µM, respectively. On the same counts, the results for `Cc1cc(-c2[nH]c3cc(C(=O)N[C@@H]4CCNC4)sc3c2C(C)C)cc(C)n1` [Example 5] are 0.654 µM and above 1 µM. For `Cc1cc(-c2[nH]c3cc(C(=O)N[C@H]4CCNC4)sc3c2C(C)C)cc(C)n1` [Example 6] the same measures were above 1 µM and 0.895 µM. For `Cc1cc(-c2[nH]c3cc(C(=O)N4CC[C@H](N)C4)sc3c2C(C)C)cc(C)n1` [Example 7] the same measures were 0.035 µM and 0.11 µM.

In the case of `Cc1cc(-c2[nH]c3cc(C(=O)N4CC[C@@H](N)C4)sc3c2C(C)C)cc(C)n1` [Example 8], the EC50 on TLR8 was 0.0272 µM; at TLR7 it was 0.0677 µM. For `Cc1cc(-c2[nH]c3cc(C(=O)N4CCNC(C#N)C4)sc3c2C(C)C)cc(C)n1` (centres unmarked) [Example 9] the same measures were 0.374 µM and 0.636 µM. On to `Cc1cc(-c2[nH]c3cc(C(=O)N(C)C4CCNCC4)sc3c2C(C)C)cc(C)n1` [Example 10], for which the results for the EC50 on TLR8 and at TLR7 were 0.0554 µM and 0.0183 µM, respectively. On the same counts, the results for `Cc1cc(-c2[nH]c3cc(C(=O)N4CCC[C@H](N)C4)sc3c2C(C)C)cc(C)n1` [Example 11] are 0.105 µM and 0.0287 µM. For `Cc1cc(-c2[nH]c3cc(C(=O)N4CCC[C@@H](N)C4)sc3c2C(C)C)cc(C)n1` [Example 12] the same measures were 0.0666 µM and 0.0422 µM. In the case of `Cc1cc(-c2[nH]c3cc(C(=O)N4CC[C@H](F)[C@@H](N)C4)sc3c2C(C)C)cc(C)n1` [Example 26], the EC50 at TLR7 worked out at 0.103 µM.

As to `Cc1cc(-c2[nH]c3cc(C(=O)N4CCC[C@H](N)[C@@H]4C)sc3c2C(C)C)cc(C)n1` [Example 33], the EC50 at TLR7 turned out to be 0.0111 µM.

As for `Cc1cc(-c2[nH]c3cc(C(=O)N4CC[C@H](N)C4)sc3c2C(C)C)cn(C)c1=O` [Example 35], on TLR7, the half-maximal effective concentration (EC50) amounted to 0.24 µM. For the molecule `Cc1cc(-c2[nH]c3cc(C(=O)N(C)C4CCNCC4(C)C)sc3c2C(C)C)cc(C)n1` (centres unmarked) [Example 37], the EC50 at TLR7 worked out at 0.0103 µM.

In the case of `Cc1cc(-c2[nH]c3cc(C(=O)N4CCN5CCOC[C@H]5C4)sc3c2C(C)C)cc(C)n1` [Example 41], the EC50 at TLR7 was 0.682 µM. Still for that read-out and setting: next, `Cc1cc(-c2[nH]c3cc(C(=O)N4CCN5CCOC[C@@H]5C4)sc3c2C(C)C)cc(C)n1` [Example 42]: 0.489 µM. With `Cc1cc(-c2[nH]c3cc(C4CCC5(CCNC5)C4)sc3c2C(C)C)cn2ncnc12` (centres unmarked) [Example 278], the EC50 at TLR8 worked out at 0.0105 µM.
